Measured values published in paper PMC3812159, “A Comparative Analysis of the Ubiquitination Kinetics of Multiple Degrons to Identify an Ideal Targeting Sequence for a Proteasome Reporter” (PLoS ONE, 2013).
Read-outs that look alike come from different tables or passages of the source. Residues, ends and D or L forms follow the SMILES beside them. *: point of attachment. 5FAM = O=C1OC2(c3ccc(O)cc3Oc3cc(O)ccc32)c2ccc(C(=O)*)cc21

Tests used:
[1] = test system: endogenous proteases and peptidases found in the S100 lysates; assay: Peptidase-dependent degradation rate constants from the multi-monoubiquitination model; details: values multiplied by 10^3; for k5, rate constant for peptidase-dependent degradation of unmodified parent substrate: HeLa S100 cytosolic lysates 2 mg/mL, proteasome inhibited by 100 µM MG-132, pH 7.6, 37°C, 12-14 µM peptide, model-fitted (MCMC), degraded substrate not measured; for k6, rate constant for peptidase-dependent degradation of mono-ubiquitinated substrate / k7, rate constant for peptidase-dependent degradation of di-ubiquitinated substrate / k8, rate constant for peptidase-dependent degradation of tri-ubiquitinated substrate / k9, rate constant for peptidase-dependent degradation of tetra-ubiquitinated substrate: as k5, HeLa S100 lysates, MG-132, 37°C, model-fitted
Procedure: (§1) The in vitro ubiquitination assay was carried out at the indicated times at 37°C in a total reaction volume of 25 µL containing assay buffer (10 mM Tris-HCl pH 7.6 and 5 mM MgCl2) with 2 mM DTT, 20 µg/mL ubiquitin aldehyde (Boston Biochem), 400 µg/mL methylated ubiquitin (Enzo Life Sciences), 1×ATP energy regenerating solution (ATP-ERS, Boston Biochem), 100 µM of the proteasome inhibitor MG-132 (EMD Chemicals), 2 mg/mL HeLa S100 cytosolic lysates as the source of E1, E2, and E3 enzymes, 750 ng of indicated peptide substrate, and inhibitors Complete ULTRA and PhosSTOP (Roche). Reactions were halted by addition of 2× tricine sample buffer (Bio-Rad) and subsequent boiling. Samples were loaded onto SDS page gels (precast 16.5% Mini PROTEAN Tris-Tricine, Bio-Rad) using 1× tris-tricine running buffer and visualized with a Typhoon Imager (GE Healthcare Life Sciences). Gels were quantified using ImageJ (US National Institute of Health) by comparing sample intensity to unreacted parent peptide intensity, which is not depicted in the gels.
(§2) Ubiquitin pull down assays were performed similarly to the in vitro ubiquitination assay as described above, with the exception of a total volume of 100 µL and 4.2 µg of peptide substrate. At the end of the indicated times, samples were incubated with Control-Agarose beads (LifeSensors), diluted in TBS-T buffer (20 mM Tris-HCl pH 8.0, 150 mM NaCl, and 0.1% v/v Tween-20), for 60 min on a tube rotator at 4°C. Samples were subsequently centrifuged at 1800×g for 5 min to pellet and remove control beads. The supernatant was transferred to solution of Agarose-TUBES1 (LifeSensors) diluted in TBS-T and incubated overnight on a tube rotator at 4°C. Ubiquitin-bound beads were washed 5× with TBS-T and then the samples were eluted off of the bead with 2× tricine sample buffer, boiled for 5 min, and then isolated by centrifugation for 5 min at 13000×g. Samples were loaded onto an SDS PAGE gel, electrophoresed, visualized and quantified as described above.
(§3) The series of ordinary differential equations were solved in MATLAB using ODE15s and the boundary conditions defined in equations S1–S6. Kinetic rate constants were determined using a Markov Chain Monte Carlo (MCMC) algorithm in MATLAB by minimizing the cumulative sum of the squared deviations (cSSD), as defined by equations S8–S9, between the calculated and experimental data similar to previous work by Cirit et. al. [23].
(§4) To accomplish this objective, a kinetic model was developed to describe the step-wise ubiquitination of the degron-based substrates. The goal of this model was to both determine the reaction kinetics for ubiquitin transfer to the degron-based substrates and distinguish polyubiquitination from multi-monoubiquitination. […] Each step in the reaction was described by a corresponding rate constant (k1–k9). Due to the presence of the deubiquitinating enzyme (DUB) inhibitor ubiquitin aldehyde, substrate deubiquitination was neglected. Further, the proteasome inhibitor MG-132 was added at an appropriate amount to neglect proteasome-mediated degradation of the substrates.

[2] = test system: endogenous proteases and peptidases found in the S100 lysates
Procedure: as §1, §2, §3, §4

[3] = test system: HeLa S100 cytosolic lysates as the source of E1, E2, and E3 enzymes; assay: Ubiquitin pull down assay with methylated ubiquitin, multi-monoubiquitination kinetic model; type: biochemical; details: for substrate ubiquitination, fluorescent intensity compared to unmodified substrate: ubiquitin pull down, methylated ubiquitin, time points up to 240 min, n = 3; for k1/k5, mono-ubiquitination vs. degradation of unmodified substrate: ratio of fitted rate constants, >1 favours ubiquitination, <1 degradation
Source text: A second model based on substrate multi-monoubiquitination was developed and evaluated. This model assumed that the generation of di-, tri-, and tetra-ubiquitinated species was the result of multiple methylated ubiquitins being conjugated to the multiple available lysines found on the degron-based substrate (Figure 3a). As opposed to the polyubiquitination model, the multi-monoubiquitination model accurately fit the data for all eight degron-based substrates (Figure 3b–d, Figure S4 in File S1, Table 2). Using this model, kinetic rate constants for all ubiquitination (k1 for mono-, k2 for di-, k3 for tri-, and k4 for tetra-) and peptidase-dependent degradation steps (Table 2) were calculated. The multi-monoubiquitination model nicely corresponded to the observed results in Figure 2. […] The model also captured the preference for di-ubiquitination of the Cyclin D1 degron (k2 is two-fold greater than k1) and the equal preference of mono- and di-ubiquitination states found in the HIF-1α degron (k1 of 2.6 and k2 of 3.0). Further, the similar behavior and observed kinetics for IFNAR and TAZ degrons were mostly likely due to the fact that these degrons are recognized by the same E3 ligase, SCF^βTrCP (Table 1). To test the robustness of the multi-monoubiquitination model, a ninth substrate based on the degron from the protein β-Catenin was assessed. This substrate was selected because it is ubiquitinated by the same E3 ligase as TAZ and IFNAR1, SCF^βTrCP. The model accurately fit the data for the multi-monoubiquitination of the β-Catenin degron-based substrate with similar rate constants compared to the TAZ and IFNAR1-based substrates (Table 2). Finally, it was important to assess the validity of the model by addressing the relative goodness of fit between the experimental data and the model predictions as determined from the multi-monoubiquitination model. For this particular analysis it was decided to calculate the sample Pearson correlation coefficient (Eq. S10 in File S1), a widely used metric to measure the dependence between two variables. A correlation coefficient was calculated between the model predictions and experimental data for mono-, di-, tri-, and tetra-ubiquitinated substrate for all nine degron-based substrates (Table S1 in File S1). As per convention, a positive value approaching 1 corresponds to a very good fit, which is observed for all nine substrates indicating a good fit between model and data.

Molecule | k5, rate constant for peptidase-dependent degradation of unmodified parent substrate [1] | k6, rate constant for peptidase-dependent degradation of mono-ubiquitinated substrate [1] | k7, rate constant for peptidase-dependent degradation of di-ubiquitinated substrate [1] | k8, rate constant for peptidase-dependent degradation of tri-ubiquitinated substrate [1] | k9, rate constant for peptidase-dependent degradation of tetra-ubiquitinated substrate [1] | k6, rate constant for peptidase-dependent degradation of mono-ubiquitinated substrate [2] | k7, rate constant for peptidase-dependent degradation of di-ubiquitinated substrate [2] | k8, rate constant for peptidase-dependent degradation of tri-ubiquitinated substrate [2] | k9, rate constant for peptidase-dependent degradation of tetra-ubiquitinated substrate [2] | substrate ubiquitination, fluorescent intensity compared to unmodified substrate [3] | k1/k5, mono-ubiquitination vs. degradation of unmodified substrate [3]
CC(=O)N[C@@H](CCCCN)C(=O)N[C@H](C(=O)N[C@@H](CCCNC(=N)N)C(=O)NCC(=O)N[C@H](C(=O)N[C@@H](CCC(=O)O)C(=O)N[C@@H](CCC(=O)O)C(=O)N[C@H](C(=O)N[C@@H](C)C(=O)N[C@@H](CCC(=O)O)C(=O)NCC(=O)N[C@H](C(=O)N[C@H](C(=O)N[C@@H](CC(C)C)C(=O)N[C@@H](CC(C)C)C(=O)N[C@@H](CCCNC(=N)N)C(=O)N[C@@H](CCCNC(=N)N)C(=O)N[C@@H](CCCNC(=N)N)C(=O)NCC(=O)N[C@@H](CC(N)=O)C(=O)N[C@@H](CCCCNC(=O)c1ccc2c(c1)C(=O)OC21c2ccc(O)cc2Oc2cc(O)ccc21)C(=O)N[C@@H](CCCCN)C(=O)N[C@@H](CCCCN)C(=O)N[C@@H](CCCCN)C(N)=O)C(C)C)C(C)C)C(C)C)C(C)C)[C@@H](C)O [Bonger] (Ac-KTRGVEEVAEGVVLLRRRGNK(5FAM)KKK-NH2) | 4.0 (1/min)*10^3 | 0.01 (1/min)*10^3 | 1.0 (1/min)*10^3 | 0.01 (1/min)*10^3 | 0.01 (1/min)*10^3 |  |  |  |  |  | 
CC[C@H](C)[C@H](NC(=O)[C@H](Cc1ccc(O)cc1)NC(=O)[C@@H]1CCCN1C(=O)[C@H](C)NC(=O)[C@H](CC(C)C)NC(=O)[C@H](C)NC(=O)[C@H](CCC(=O)O)NC(=O)[C@H](CC(C)C)NC(=O)[C@H](CC(=O)O)NC(=O)[C@H](CC(C)C)NC(=O)[C@H](CC(=O)O)NC(=O)[C@H](C)NC(=O)[C@H](CO)NC(=O)[C@H](C)NC(C)=O)C(=O)N1CCC[C@H]1C(=O)N[C@@H](C)C(=O)N[C@@H](CC(=O)O)C(=O)N[C@@H](CC(=O)O)C(=O)N[C@@H](CC(=O)O)C(=O)N[C@@H](Cc1ccccc1)C(=O)N[C@@H](CCC(N)=O)C(=O)N[C@@H](CC(C)C)C(=O)N[C@@H](CCCNC(=N)N)C(=O)N[C@@H](CCCCNC(=O)c1ccc2c(c1)C(=O)OC21c2ccc(O)cc2Oc2cc(O)ccc21)C(=O)N[C@@H](CCCCN)C(=O)N[C@@H](CCCCN)C(=O)N[C@@H](CCCCN)C(N)=O [HIF-1α] (Ac-ASADLDLEALAPYIPADDDFQLRK(5FAM)KKK-NH2) | 7.0 (1/min)*10^3 | 0.1 (1/min)*10^3 | 0.1 (1/min)*10^3 | 0.4 (1/min)*10^3 | 0.8 (1/min)*10^3 |  |  |  |  |  | 
CC(=O)N[C@@H](CCCCN)C(=O)N1CCC[C@H]1C(=O)N[C@@H](CC(C)C)C(=O)N[C@@H](CO)C(=O)N[C@@H](CO)C(=O)N[C@@H](CO)C(=O)N[C@H](C(=O)N1CCC[C@H]1C(=O)N[C@@H](CO)C(=O)N[C@@H](CCC(N)=O)C(=O)N[C@@H](CCCCN)C(=O)N[C@H](C(=O)N[C@@H](Cc1ccc(O)cc1)C(=O)N[C@@H](CCC(N)=O)C(=O)NCC(=O)N[C@@H](CO)C(=O)N[C@@H](Cc1ccc(O)cc1)C(=O)NCC(=O)N[C@@H](Cc1ccccc1)C(=O)N[C@@H](CCCNC(=N)N)C(=O)N[C@@H](CC(C)C)C(=O)NCC(=O)N[C@@H](CCCCNC(=O)c1ccc2c(c1)C(=O)OC21c2ccc(O)cc2Oc2cc(O)ccc21)C(=O)N[C@@H](CCCCN)C(=O)N[C@@H](CCCCN)C(=O)N[C@@H](CCCCN)C(N)=O)[C@@H](C)O)C(C)C [p53] (Ac-KPLSSSVPSQKTYQGSYGFRLGK(5FAM)KKK-NH2) |  |  |  |  |  | 0.01 (1/min)*10^3 | 0.01 (1/min)*10^3 | 0.01 (1/min)*10^3 | 0.33 (1/min)*10^3 |  | 
K-(PEG)-DVQKADVSSTGQGIDSK(FAM)KKK [SRC3] |  |  |  |  |  | 0.01 (1/min)*10^3 | 0.01 (1/min)*10^3 | 0.01 (1/min)*10^3 | 0.33 (1/min)*10^3 | lowest degree of ubiquitination | 
K-(PEG)-KEEKDINNNVKKTK(FAM)KKK [iNOS] |  |  |  |  |  | 1.0 (1/min)*10^3 | 0.01 (1/min)*10^3 | 0.01 (1/min)*10^3 | 0.3 (1/min)*10^3 | higher ubiquitination | 1.62
KAAEEEEVSLASTPTDVRDVDIK(FAM)KKK [Cyclin D1] |  |  |  |  |  | 0.01 (1/min)*10^3 | 0.01 (1/min)*10^3 | 0.01 (1/min)*10^3 | 1.8 (1/min)*10^3 | lowest degree of ubiquitination | 0.47
KKYSSQTSQDSGNYSNK(FAM)KKK [IFNAR1] |  |  |  |  |  | 0.01 (1/min)*10^3 | 0.01 (1/min)*10^3 | 0.01 (1/min)*10^3 | 0.1 (1/min)*10^3 |  | 0.96
KPFLNGGPYHSREQSTDSGLGLGSYK(FAM)KKK [TAZ] |  |  |  |  |  | 1.5 (1/min)*10^3 | 0.1 (1/min)*10^3 | 0.5 (1/min)*10^3 | 0.1 (1/min)*10^3 |  | 2.65
